{
  "source": "patent US9844536B2",
  "about": "“3-(1H-imidazo[4,5-C]pyridin-2-yl)-1H-pyrazolo[3,4-C]pyridine and therapeutic uses thereof” (Samumed, LLC, priority 2014, dated 2017)",
  "assay_type_in_all_cases": "cell-based",
  "key": {"ARPE-19 cells": {"system": "ARPE-19 cells", "assay": "Transdifferentiation of ARPE-19 cells into eye neuronal cells [photoreceptors], PAX6 staining", "conditions": "Homo sapiens, fixed at 40 hours, PAX6 antibody staining, normalized to DMSO", "experimental": "The above synthesized compounds were screened using ARPE-19 cells [a spontaneously arising retinal pigment epithelia (RPE) cell line] to determine their ability to transdifferentiate ARPE-19 into eye neuronal cells [photoreceptors].\nARPE-19 cells are cultured in standard culture medium containing Dulbecco's Modified Eagle's Medium and Ham's F12 Nutrient Mixture (DMEM/F12) mix (1:1)+GlutaMax with 1% penicillin-Streptomycin and 10% FBS (Fetal Bovine Serum). Cells are incubated at 37° C. with 5% CO2. Cells are trypsinized and plated onto 384-well pre-spotted plate at a density of 3000 cells/well in 50 uL of media. Plating media: DMEM/F12 (1:1)+3% charcoal filtered-FBS+GlutaMax+1% pen/Strep. Cells are incubated at 37° C. with 5% CO2. At 40 hours, cells were fixed for 15 min with 10% Buffered Formalin. Cells were then washed 3 times with PBS for 5 min each, permeablize using 0.3% Triton X-100 in 1×PBS for 30 min, block for 1 hr with 2% BSA in 1×PBS with 0.1% Triton X-100. The primary antibody (1:100 PAX6 Santa Cruz Biotech; sc-81649) was diluted and 10 μL/well was added to the cells. The cells were incubated overnight at 4° C. […] Readings were normalized to DMSO only treated cells, and normalized activities were utilized for EC50 calculations using the dose-response log (activator) vs. response-variable slope (four parameters) nonlinear regression feature available in GraphPad Prism 5.0 or 6.0."}, "LL29 cells": {"system": "LL29 cells", "assay": "Inhibition of the fibrotic process (αSMA staining) in TGF-β1 treated primary human fibroblasts from IPF patients", "conditions": "Fibroblast, 96 h, TGF-β1 20 ng/mL, 4 days, dose-response 10 μM to 1.87 nM, read-out: Inhibition of fibrosis EC50", "how_it_was_run": "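LL29 IPF lung fibroblasts in 1% FBS were stimulated with TGF-β1 (20 ng/mL) and treated 4 days at 37 °C with compound (11 points, 10 μM–1.87 nM, 0.1% DMSO). The % αSMA-positive cells, imaged after excluding SYTOX-positive dead cells, was normalized to TGF-β1/DMSO wells. EC50 came from nonlinear regression over triplicates.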"}, "[1]": {"system": "Wnt pathway (Sp5-Luc reporter, SW480 cells)", "assay": "Sp5-Luc reporter gene screening assay for Wnt activity in SW480 colon carcinoma cells", "conditions": "Homo sapiens", "how_it_was_run": "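IC50 values come from variable-slope four-parameter fits of luciferase signal normalized to DMSO wells. Stable Sp5-Luc reporter SW480 colon carcinoma cells were exposed to compounds in a 3-fold dilution series (source plates from 10 mM stock) for forty-two hours at 37 °C.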"}},
  "data": [
    {"smiles": "CN(C)CCOc1cncc(-c2cc3c(-c4nc5c(-c6cccc(F)c6)nccc5[nH]4)n[nH]c3cn2)c1", "note": "[Compound 947, 2-((5-(3-(4-(3-Fluorophenyl)-1H-imidazo[4,5-c]pyridin-2-yl)-1H-pyrazolo [3,4-c]pyridin-5-yl)pyridin-3-yl)oxy)-N,N-dimethylethan-1-amine]", "values": [
      {"measurement": "EC50", "setting": "ARPE-19 cells", "result": 35, "unit": "nM"},
      {"measurement": "EC50", "setting": "LL29 cells", "result": 484, "unit": "nM"},
      {"measurement": "IC50", "setting": "[1]", "result": 99, "unit": "nM"}
    ]}
  ]
}
